From PubChem BioAssay AID1996 come the findings set out here.

Structures are written as SMILES. Converted amounts (≈) assume the structure as drawn.

The conditions of this data set: buffer; pH 7.4; 200.0 µM.
As to `COc1ccc(C(=O)N[C@H](C(=O)NCc2ccc(C)cc2)C(C)C)cc1`, the solubility (kinetic) turned out to be 1.1 µg/mL (≈ 3.1 µM). As for `Cc1ccc(NC(=O)CN2C(=O)NC3(CCCC3)C2=O)c(Cl)c1`, the figure is above 50.4 µg/mL; as for `COc1ccc(CCNC(=O)CCC(=O)NC2CCCCC2)cc1OC`, above 54.4 µg/mL.

For the compound `Cc1ccc(F)c(NC(=O)c2c(-c3ccccc3)noc2C)c1`, the kinetic solubility amounted to 2.2 µg/mL (≈ 7.09 µM). Compound `CCN(c1ccccc1)S(=O)(=O)c1ccc(OC)c(NC(=O)c2cc(F)c(F)c(F)c2F)c1` gave a kinetic solubility of 0.7 µg/mL (≈ 1.45 µM). `N#C/C(=C\c1cccc(Br)c1)C(=O)N1CCCCC1` came in with a solubility (kinetic) above 47.9 µg/mL.

With `CCCCCc1c(O)nc(SCCN(CC)CC)[nH]c1=O.Cl`, the kinetic solubility was above 52.5 µg/mL. As for `Cl.O=[N+]([O-])c1ccccc1OCCCN1CCc2ccccc2C1`, the figure is above 52.3 µg/mL.

`CC(C)(C)C(=O)Nc1sc(-c2ccccc2)cc1C(=O)O` came in with a kinetic solubility above 45.5 µg/mL.

Take `O=C1OC(Nc2nc(-c3ccc(F)cc3)cs2)c2ccccc21` (stereo not drawn): the solubility (kinetic) was 1.9 µg/mL (≈ 5.82 µM).

As to `CN(Cc1ccc(Cl)cc1)C(=O)c1ccc2ccccc2n1`, the kinetic solubility is above 46.6 µg/mL. Take `O=C(Cc1ccc(Br)cc1)N1CCOCC1`: the kinetic solubility is 38.8 µg/mL (≈ 137 µM). As for `Cc1ccc(S(=O)(=O)NC(=O)Nc2ccc(F)c(F)c2)cc1`, the figure is 44.1 µg/mL (≈ 135 µM); as for `O=C(Cc1cccs1)NC(Cc1c[nH]c2ccccc12)C(=O)O` (stereo not drawn), above 49.3 µg/mL; as for `O=C(CN1CCCCC1)c1c[nH]c2ccccc12`, above 36.3 µg/mL.

Take `Cc1ccc(N2CC(O)=C(c3ccccc3)C2=N)cc1`: the kinetic solubility was above 39.6 µg/mL. As for `Cc1ncc([N+](=O)[O-])n1CC(=O)Nc1cc(Cl)ccc1Cl`, the figure is 0.9 µg/mL (≈ 2.73 µM); as for `Clc1ccc2nc(-c3ccc(Cl)nc3)[nH]c2c1`, 13.5 µg/mL (≈ 51.1 µM); as for `O=C(O)c1ccc(/C=N/N2CCN(c3ccccc3)CC2)cc1`, above 46.4 µg/mL. As for `COc1cccc(CN(C)C(=O)CCC(=O)c2cc(Br)ccc2OC)c1`, the figure is 18.3 µg/mL (≈ 43.5 µM); as for `COCC(=O)Nc1ccc2c(c1)OCC(=O)N2Cc1ccc(C)cc1`, 20.9 µg/mL (≈ 61.4 µM); as for `Cc1cc(C)nc(/N=c2/ssnc2Cl)c1`, 1.8 µg/mL (≈ 6.98 µM). To `CCNC(=O)COC(=O)c1sccc1C` belongs above 34.1 µg/mL; to `CC(C)S(=O)(=O)C/C(N)=N/OS(=O)(=O)c1ccc(Cl)cc1`, 42.5 µg/mL (≈ 120 µM); to `COc1ccc(NC(=S)N2CCc3cc(OC)c(OC)cc3C2)cc1`, 1.5 µg/mL (≈ 4.18 µM). `O=C(c1cccnc1)c1ncc(C(F)(F)F)cc1Cl` had a kinetic solubility of 35.7 µg/mL (≈ 125 µM). To `CCNc1nc(NCC)nc(NC(N)=S)n1` belongs 9 µg/mL (≈ 37.3 µM); to `Cc1nc(SCc2ccccc2F)c2oc3ccccc3c2n1`, below 0.3 µg/mL. As for `Cc1ccc2[nH]cc(S(=O)(=O)c3ccc(F)cc3)c(=O)c2c1`, the figure is 5.5 µg/mL (≈ 17.3 µM); as for `COc1ccc(S(=O)(=O)Nc2ncccn2)cc1`, 23.1 µg/mL (≈ 87.1 µM); as for `COC(=O)c1ccccc1NC(=S)NC(C)=O`, above 37.8 µg/mL. As for `Cc1ccc(NC(=O)CN(C)C(=O)c2ccc(Cl)nc2)cc1`, the figure is above 47.7 µg/mL. `O=C(NCCCn1ccnc1)c1cc(C(=O)C2CCCCC2)c[nH]1` gave a kinetic solubility of 49 µg/mL (≈ 149 µM).

Regarding `CCOP(=O)(OCC)C(O)c1ccc(N(C)C)cc1` (stereo not drawn), the solubility (kinetic) is above 43.1 µg/mL. `COc1cc(/C=C/C(=O)OCC(=O)N2CCCc3ccccc32)ccc1O` registered a kinetic solubility of 33.1 µg/mL (≈ 90.1 µM). To `O=C1CSC(=S)N1` belongs above 20 µg/mL; to `O=C(CSc1ncccn1)N1CCCCCC1`, above 37.7 µg/mL. As for `CN(C(=O)COC(=O)/C=C/c1ccccc1[N+](=O)[O-])c1ccccc1`, the figure is 47.5 µg/mL (≈ 140 µM); as for `CO/N=C(\C)C(Cc1ccc(Cl)nc1)Cc1ccc(Cl)nc1`, above 50.7 µg/mL; as for `Fc1ccc(-c2csc(-c3cccnc3)n2)cc1F`, 0.7 µg/mL (≈ 2.55 µM). As for `CC(=O)NCCc1nc2cc(NC(=O)Nc3ccccc3)ccc2n1C`, the figure is above 52.7 µg/mL; as for `O=C(CNC(=O)c1ccc(-c2ccccc2)cc1)Nc1cccc(CO)c1`, 9.3 µg/mL (≈ 25.8 µM); as for `COc1ccc(NC(=S)NC2CC3CCC2C3)c(OC)c1` (stereo not drawn), 14.8 µg/mL (≈ 48.3 µM). Consider `O=C1NC(c2ccccc2Br)=N/C1=C\c1ccco1`, for which the kinetic solubility stood at 13.6 µg/mL (≈ 42.9 µM). To `O=C(NCCCn1ccnc1)c1ccc(-c2ccccc2)cc1` belongs above 45.8 µg/mL; to `Cn1c(=O)[nH]c(=O)c2c1nc1n2CCS1`, 31 µg/mL (≈ 138 µM); to `O=C(CNC(=O)c1ccccc1)OCC(=O)c1c[nH]c2ccccc12`, 18.6 µg/mL (≈ 55.3 µM). To `COc1ccc(CCNC(=O)c2ccc3nc[nH]c3c2)cc1` belongs above 44.3 µg/mL; to `CC(CNC(=O)c1ccccc1Cl)c1ccccc1` (stereo not drawn), 36.6 µg/mL (≈ 134 µM). The compound `Cc1ccc(NS(=O)(=O)c2ccc(C(=O)NCc3ccccn3)cc2)cc1` displayed a solubility (kinetic) of 53.8 µg/mL (≈ 141 µM). Compound `O=C(CC1CCCCC1)NCc1ccccc1` yielded a kinetic solubility of 30.5 µg/mL (≈ 132 µM). To `CCOc1cccc2sc(Cl)nc12` belongs 3.9 µg/mL (≈ 18.3 µM). As for `Cc1nc(C)c(/C(O)=C\c2nc3ccc([N+](=O)[O-])cc3oc2=O)o1`, the figure is above 49.4 µg/mL.

For orientation: solubility (kinetic) means solubility judged after dilution from a stock solution rather than from solid.
